Measurements taken from patent US20240199546A1, “INHIBITORS OF SOLUTE CARRIER FAMILY 6A MEMBER 19 (SLC6A19) AND METHODS OF USE THEREOF” (Maze Therapeutics, Inc., priority 2022, published 2024).

Target: T1, human SLC6A19 and TMEM27 (Homo sapiens, UniProt Q695T7)
T1 construct: expressed in transfected cells
T1 sequence (Q695T7 1-634): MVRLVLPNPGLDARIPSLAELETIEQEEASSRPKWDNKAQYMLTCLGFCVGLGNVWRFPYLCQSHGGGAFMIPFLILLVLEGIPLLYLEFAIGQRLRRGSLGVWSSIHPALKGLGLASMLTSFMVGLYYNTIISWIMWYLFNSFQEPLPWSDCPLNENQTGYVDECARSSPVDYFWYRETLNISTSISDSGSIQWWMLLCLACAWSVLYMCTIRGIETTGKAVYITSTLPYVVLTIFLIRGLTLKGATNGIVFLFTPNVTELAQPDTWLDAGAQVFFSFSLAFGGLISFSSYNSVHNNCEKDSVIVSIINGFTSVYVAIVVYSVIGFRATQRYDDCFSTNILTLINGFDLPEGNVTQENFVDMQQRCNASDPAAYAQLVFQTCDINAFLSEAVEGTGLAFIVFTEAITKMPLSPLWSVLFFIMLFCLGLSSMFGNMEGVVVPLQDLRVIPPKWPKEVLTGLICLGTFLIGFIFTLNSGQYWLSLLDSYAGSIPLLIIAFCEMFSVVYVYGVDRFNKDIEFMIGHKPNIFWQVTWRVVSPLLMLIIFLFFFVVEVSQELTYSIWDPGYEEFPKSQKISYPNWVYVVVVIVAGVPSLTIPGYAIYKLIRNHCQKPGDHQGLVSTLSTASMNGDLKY
T1 sequence (Q9HBJ8 15-222 partner): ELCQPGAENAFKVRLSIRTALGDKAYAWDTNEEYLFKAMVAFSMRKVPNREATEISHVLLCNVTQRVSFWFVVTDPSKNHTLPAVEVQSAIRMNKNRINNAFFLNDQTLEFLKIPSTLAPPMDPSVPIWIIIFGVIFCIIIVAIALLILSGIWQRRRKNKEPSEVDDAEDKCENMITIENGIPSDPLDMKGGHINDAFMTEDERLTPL
Assay: Radiolabelled (3H) leucine uptake in CHO cells with doxycycline-inducible expression of human SLC6A19 and TMEM27 (Example B-1)
Type: cell-based
Details: CHO cells with doxycycline-inducible expression of human SLC6A19 and TMEM27, read-out: SLC6A19_Radioligand Uptake Assay IC50
Protocol: The flasks were then incubated (humidified, 37° C. with 5% CO2) for 2 minutes. After incubation, 10 mL of pre-warmed cell culture media was added to each flask. The cell suspension was collected and centrifuged for 5 minutes at 200×g. The supernatant was aspirated and the pellet was resuspended in 5 mL pre-warmed cell culture media. The resuspended cells were counted using the Countess Cell Counting Chamber (Invitrogen) and the cell concentration of the suspension was readjusted to 1 million live cells/mL using pre-warmed cell culture media. […] Assay plates were then incubated (humidified, 37° C. with 5% CO2) for 18 hours. After incubation, the media was aspirated and the wells were washed 4 times with pre-warmed HBSS (Sigma-Aldrich, H8264-1L) using an Apricot S-Pipette S2 (Apricot Designs), such that 5 uL/well HBSS was remaining at the end of each wash. […] At this step, the final in-well DMSO concentration in the assay plate is 0.5%. All compounds were plated in a duplicate 8-point dilution series that consisted of 3-fold dilutions. The plates were incubated with compound (humidified, 37° C. with 5% CO2) for 1 hour. […] The plates were then incubated (humidified, 37° C. with 5% CO2) on a plate shaker at 200 rpm for 2 hours. After incubation, the plates were removed from the shaker and kept at room temperature for 15 minutes. Liquid scintillation analysis was performed using the MicroBeta2 Microplate Counter (Perkin Elmer). Activity (%) was derived by normalizing the average of positive control compound treated wells to 0% and the average of DMSO (negative control) wells to 100%. Collaborative Drug Discovery software was used for graphing data.

IC50 | Structure (SMILES)
365 nM | CC1CCN(C(=O)NCc2cc3cc(Cl)c(OCc4ccon4)cc3[nH]2)C1 (stereo not drawn) [Compound 87, N-((5-chloro-6-(isoxazol-3-ylmethoxy)-1H-indol-2-yl)methyl)-3-methylpyrrolidine-1-carboxamide]
477 nM | O=C(NCc1cc2cc(F)c(OCc3ccon3)cc2[nH]1)N1CCCCC1 [Compound 88, N-((5-fluoro-6-(isoxazol-3-ylmethoxy)-1H-indol-2-yl)methyl)piperidine-1-carboxamide]
567 nM | O=C(NCc1cc2cc(F)c(OCc3ccon3)cc2[nH]1)N1CCC1 [Compound 89, N-((5-fluoro-6-(isoxazol-3-ylmethoxy)-1H-indol-2-yl)methyl)azetidine-1-carboxamide]
524 nM | CC1CCN(C(=O)NCc2cc3cc(F)c(OCc4ccon4)cc3[nH]2)C1 (stereo not drawn) [Compound 91, N-((5-fluoro-6-(isoxazol-3-ylmethoxy)-1H-indol-2-yl)methyl)-3-methylpyrrolidine-1-carboxamide]
214 nM | O=C(NCc1cc2cc(F)c(OCc3cscn3)cc2[nH]1)N1CCC1 [Compound 92, N-((5-fluoro-6-(thiazol-4-ylmethoxy)-1H-indol-2-yl)methyl)azetidine-1-carboxamide]
177 nM | O=C(NCc1cc2cc(Cl)c(OCc3cscn3)cc2[nH]1)N1CCC(F)C1 (stereo not drawn) [Compound 93, N-((5-chloro-6-(thiazol-4-ylmethoxy)-1H-indol-2-yl)methyl)-3-fluoropyrrolidine-1-carboxamide]
4360 nM | CC1(C(=O)NCc2cc3cc(Cl)c(OCc4cccc(C(F)(F)F)n4)cc3[nH]2)CC1 [Compound 101, N-((5-chloro-6-((6-(trifluoromethyl)pyridin-2-yl)methoxy)-1H-indol-2-yl)methyl)-1-methylcyclopropane-1-carboxamide]
17600 nM | CC(C)c1cc(COc2cc3[nH]c(CNC(=O)C4(C)CC4)cc3cc2Cl)no1 [Compound 102, N-((5-chloro-6-((5-isopropylisoxazol-3-yl)methoxy)-1H-indol-2-yl)methyl)-1-methylcyclopropane-1-carboxamide]
114 nM | CC1(C(=O)NCc2cc3cc(Cl)c(OCCc4ccon4)cc3[nH]2)CC1 [Compound 103, N-((5-chloro-6-(2-(isoxazol-3-yl)ethoxy)-1H-indol-2-yl)methyl)-1-methylcyclopropane-1-carboxamide]
230 nM | O=C(NCc1cc2cc(F)c(OCc3cocn3)cc2[nH]1)N1CCCC1 [Compound 115, N-((5-fluoro-6-(oxazol-4-ylmethoxy)-1H-indol-2-yl)methyl)pyrrolidine-1-carboxamide]
157 nM | O=C(NCc1cc2cc(F)c(OCc3ccon3)cc2[nH]1)N1CCCC1 [Compound 116, N-((5-fluoro-6-(isoxazol-3-ylmethoxy)-1H-indol-2-yl)methyl)pyrrolidine-1-carboxamide]
267 nM | Cc1cc(COc2cc3[nH]c(CNC(=O)N4CCCC4)cc3cc2F)no1 [Compound 117, N-((5-fluoro-6-((5-methylisoxazol-3-yl)methoxy)-1H-indol-2-yl)methyl)pyrrolidine-1-carboxamide]
1110 nM | Cc1cc(COc2cc3[nH]c(CNC(=O)N4CCCC4)cc3cc2F)on1 [Compound 118, N-((5-fluoro-6-((3-methylisoxazol-5-yl)methoxy)-1H-indol-2-yl)methyl)pyrrolidine-1-carboxamide]
375 nM | Cc1cnc(COc2cc3[nH]c(CNC(=O)N4CCCC4)cc3cc2Cl)o1 [Compound 120, N-((5-chloro-6-((5-methyloxazol-2-yl)methoxy)-1H-indol-2-yl)methyl)pyrrolidine-1-carboxamide]
98 nM | O=C(NCc1cc2cc(F)c(OCc3cscn3)cc2[nH]1)C1(C(F)(F)F)CC1 [Compound 127, N-((5-fluoro-6-(thiazol-4-ylmethoxy)-1H-indol-2-yl)methyl)-1-(trifluoromethyl)cyclopropane-1-carboxamide]
183 nM | CCC(=O)NCc1cc2cc(F)c(OCc3ccon3)cc2[nH]1 [Compound 137, N-((5-fluoro-6-(isoxazol-3-ylmethoxy)-1H-indol-2-yl)methyl)propionamide]
353 nM | CC(C)C(=O)NCc1cc2cc(F)c(OCc3ccon3)cc2[nH]1 [Compound 138, N-((5-fluoro-6-(isoxazol-3-ylmethoxy)-1H-indol-2-yl)methyl)isobutyramide]
310 nM | O=C(NCc1cc2cc(F)c(OCc3ccon3)cc2[nH]1)C1(C(F)(F)F)CC1 [Compound 139, N-((5-fluoro-6-(isoxazol-3-ylmethoxy)-1H-indol-2-yl)methyl)-1-(trifluoromethyl)cyclopropane-1-carboxamide]
148 nM | O=C(NCc1cc2cc(F)c(OCc3ccon3)cc2[nH]1)C1CC1 [Compound 140, N-((5-fluoro-6-(isoxazol-3-ylmethoxy)-1H-indol-2-yl)methyl)cyclopropanecarboxamide]
87 nM | CC(=O)NCc1cc2cc(Cl)c(OCc3cscn3)cc2[nH]1 [Compound 141, N-((5-chloro-6-(thiazol-4-ylmethoxy)-1H-indol-2-yl)methyl)acetamide]
69 nM | CC(=O)NCc1cc2cc(Cl)c(OCc3cc(C)on3)cc2[nH]1 [Compound 142, N-((5-chloro-6-((5-methylisoxazol-3-yl)methoxy)-1H-indol-2-yl)methyl)acetamide]
182 nM | CC(=O)NCc1cc2cc(Cl)c(OCc3ccon3)cc2[nH]1 [Compound 143, N-((5-chloro-6-(isoxazol-3-ylmethoxy)-1H-indol-2-yl)methyl)acetamide]
119 nM | O=C(NCc1cc2cc(Cl)c(OCc3cscn3)cc2[nH]1)C1(C(F)(F)F)CC1 [Compound 144, N-((5-chloro-6-(thiazol-4-ylmethoxy)-1H-indol-2-yl)methyl)-1-(trifluoromethyl)cyclopropane-1-carboxamide]
1960 nM | Cc1cc(CC(C)c2ccc3cc(CNC(=O)C4(C)CC4)[nH]c3c2)no1 (stereo not drawn) [Compound 153, 1-methyl-N-((6-(1-(5-methylisoxazol-3-yl)propan-2-yl)-1H-indol-2-yl)methyl) cyclopropane-1-carboxamide]
1050 nM | CCc1cc(COc2ccc3cc(CNC(=O)C4(C)CC4)[nH]c3c2)no1 [Compound 185, N-((6-((5-ethylisoxazol-3-yl)methoxy)-1H-indol-2-yl)methyl)-1-methylcyclopropane-1-carboxamide]
968 nM | CC(C)c1cc2cc(CNC(=O)C3(C)CC3)[nH]c2cc1OCc1cscn1 [Compound 186, N-((5-isopropyl-6-(thiazol-4-ylmethoxy)-1H-indol-2-yl)methyl)-1-methylcyclopropane-1-carboxamide]
9830 nM | CC1(C(=O)NCc2cc3ccc(OCC45CC(C4)C5)cc3[nH]2)CC1 [Compound 189, N-((6-(bicyclo[1.1.1]pentan-1-ylmethoxy)-1H-indol-2-yl)methyl)-1-methylcyclopropane-1-carboxamide]
2510 nM | CC1(C(=O)NCc2cc3ccc(OCc4ccc5ccoc5c4)cc3[nH]2)CC1 [Compound 192, N-((6-(benzofuran-6-ylmethoxy)-1H-indol-2-yl)methyl)-1-methylcyclopropane-1-carboxamide]
9880 nM | CC1(C(=O)NCc2cc3ccc(OCCC45CC(C4)C5)cc3[nH]2)CC1 [Compound 193, N-((6-(2-(bicyclo[1.1.1]pentan-1-yl)ethoxy)-1H-indol-2-yl)methyl)-1-methylcyclopropane-1-carboxamide]
14800 nM | Cc1cc(C(C)Cc2ccc3cc(CNC(=O)C4(C)CC4)[nH]c3c2)no1 (stereo not drawn) [Compound 195, 1-methyl-N-((6-(2-(5-methylisoxazol-3-yl)propyl)-1H-indol-2-yl)methyl)cyclopropanecarboxamide]
